Measured values as given in patent US5420143A, “Piperidine derivatives for treating allergy” (Kowa Co., Ltd., priority 1993, dated 1995).

Key:
[1] = target: T1, Leukotriene D4 receptors (Cavia porcellus, UniProt Q2NNR5); assay: Binding assay on Leukotriene D4 receptors (guinea-pig lung membrane protein, [^3 H]-leukotriene D4)
T1 construct: Preparation of guinea-pig lung membrane protein; from tissue; host or cells: guinea-pig lung membranes
T1 sequence (Q2NNR5 1-340): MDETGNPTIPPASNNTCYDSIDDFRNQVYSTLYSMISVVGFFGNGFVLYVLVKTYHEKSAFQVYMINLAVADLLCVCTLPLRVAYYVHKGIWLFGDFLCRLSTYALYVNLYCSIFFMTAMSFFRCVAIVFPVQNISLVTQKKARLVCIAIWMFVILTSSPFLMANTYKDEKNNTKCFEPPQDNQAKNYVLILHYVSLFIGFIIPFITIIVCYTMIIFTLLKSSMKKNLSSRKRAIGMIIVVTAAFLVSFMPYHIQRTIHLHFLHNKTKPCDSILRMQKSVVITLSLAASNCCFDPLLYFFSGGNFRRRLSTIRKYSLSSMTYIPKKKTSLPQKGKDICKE
Source text: Binding assay on Leukotriene D4 receptors:
a) Preparation of guinea-pig lung membrane protein:

[2] = test system: ileum isolated from guinea pigs, contraction induced by histamine; assay: Inhibition of histamine-induced contraction of isolated guinea pig ileum (antihistamine activity); details: Average ± S.D.; histamine 1×10^-5 M; 30 minutes incubation with test compound; test compound concentration not given
Method: (§1) Antihistamine activity and antileukotriene activity:
(§2) The first three constant constractions induced by histamine (1×10^-5 M) or leukotriene D4 (1×10^-8 M) were used as the reference for the calculation of the inhibitory ratio. After repeated washings until contraction movement recurred, ileal strip was incubated with the test compound for 30 minutes. The contraction test was then conducted again using histamine or leukotriene D4. The inhibitory ratio (%) of the test compound on the ileum was calculated according to the following equation: [formula]

[3] = test system: ileum isolated from guinea pigs, contraction induced by leukotriene D4; assay: Inhibition of leukotriene D4 induced contraction of isolated guinea pig ileum (antileukotriene activity); details: Average ± S.D.; leukotriene D4 1×10^-8 M; 30 minutes incubation with test compound; test compound concentration not given
Method: as §1, §2

antileukotriene activity (nature of the activity) ([1]; binding assay on leukotriene D4 receptors)	Kd ([1]; read-out: binding affinity on leukotriene D4 receptors (Kd))	SMILES	Inhibition vs histamine-induced contraction (%) [2]	Inhibition vs leukotriene D4 induced contraction (%) [3]
antagonistic	2320 nM	O=c1cc(-c2nnn[nH]2)oc2cc(OCCCN3CCC(=C(c4ccccc4)c4ccccc4)CC3)ccc12 [Compound (1), 7-[3-(4-Diphenylmethylenepiperidin-1-yl)propyloxy]-2-(5-tetrazolyl)-4-oxo-4H-benzopyran]	52 ± 7%	15 ± 1%
		CCCc1c(OCC(O)COc2ccc3c(=O)cc(C(=O)O)oc3c2CCC)ccc(C(C)=O)c1O (centres unmarked) [FPL-55712]	0%	11 ± 4%
		CC(C)(C)c1ccc(C(O)CCCN2CCC(C(O)(c3ccccc3)c3ccccc3)CC2)cc1 (centres unmarked) [Terfenadine]	5 ± 1%	0%
